Converted amounts (≈) assume the structure as drawn. Where two headings read alike, the source gives them in different places.
Columns and labels:
[1] = test system: Mab ATCC 19977 strain; assay: MIC testing (CLSI, Middlebrook 7H9 broth); format: cell-based, Mycobacterium abscessus; conditions: for MIC: Mycobacteroides abscessus, read-out: MIC, alone
[2] = Predicted average unbound steady-state plasma concentration (fCss,avg) at clinically relevant doses; parameters: species or system human
[3] = target: LDT3 (Mycobacterium abscessus, UniProt B1MHQ4); assay: Mass spectrometry of covalent adduct formation; format: binding; conditions: protein:drug 1:20, 2 h; mass accuracy ±5 Da; (−) = no change
Procedure: Truncated sequences of LDT1-5, DDC, PBP B, and PBP-lipo (Δ1–41) were generated by Celtek Biosciences and cloned into the pET28(a) + vector with a tobacco etch virus (TEV) protease cleavage site before the start codon. Clones were transformed into Escherichia coli BL21 (DE3) and grown to an OD600 of 0.6–0.8. Protein expression was induced with 0.25 mM isopropyl β-d-1-thiogalactopyranoside (IPTG) and incubated for 18 h at 18°C. Cell pellets were collected and stored at −20°C overnight, then resuspended in a buffer containing 50 mM Tris (pH 8.0), 400 mM sodium chloride, and 1 mM Tris (2-carboxyethyl) phosphine hydrochloride (TCEP), followed by sonication and centrifugation. The supernatant was purified using a His Prep FF 16/10 column (GE Healthcare) and eluted with 500 mM imidazole. Eluted protein was dialyzed overnight at 4°C in a buffer with 50 mM Tris (pH 8.0), 150 mM sodium chloride, and 0.5 mM TCEP in the presence of His-tagged TEV protease. To remove the His tag, the mixture was passed over the His Prep FF 16/10 column again.
The purified proteins listed above were incubated at room temperature with β-lactams or BLIs at a molar ratio of 1:20 for 2 h. The reactions were then quenched with acetonitrile and diluted to 1 mL with 0.1% formic acid in water. Samples were analyzed using a quadrupole time-of-flight (Q-TOF) Waters Synapt-G2-Si electrospray ionization mass spectrometer (ESI-MS) and a Waters Acquity H class ultra-performance liquid chromatography (UPLC) system, equipped with a BEH C18 1.7 µm column (2.1 × 50 mm). The MS was tuned with the following settings: capillary voltage set at 3 kV, sampling cone at 35 V, source offset at 35, source temperature of 100°C, desolvation temperature of 500°C, cone gas flow rate at 100 L/h, desolvation gas flow rate at 800 L/h, and nebulizer set at 6.0. The mobile phases consisted of 0.1% formic acid in water and 0.1% formic acid in 100% acetonitrile, with gradient elution from 10% to 90% of […] over 11 min. The system’s mass accuracy was ±5 Da.

[4] = target: T1, PBP-lipo (Mycobacteroides abscessus, UniProt B1MDC3); assay: Bocillin-FL binding assay; conditions: 2 h incubation, 1:10 molar ratio
T1 construct: made in house; host or cells: Escherichia coli BL21 (DE3)
Procedure: To analyze the binding of PBP-lipo with β-lactams or BLIs, purified PBP-lipo (4 µg) was incubated with β-lactams or BLIs at a 1:10 molar ratio in a buffer containing 10 mM sodium phosphate (pH 7.4) and 150 mM NaCl. The incubation was carried out for 2 h at room temperature. After the initial incubation, 1 µM Bocillin FL was added to the reaction mixture. The incubation was continued for an additional 3–4 h at 37°C. After incubation, the samples were boiled to denature the proteins. The samples were then subjected to SDS-PAGE. The PBP-lipo:Bocillin complexes were visualized by fluorescence analysis at a wavelength of 488 nm using an Azure 300 gel imaging system. The intensity of the PBP-lipo:Bocillin complex bands was analyzed using GelAnalyzer software. The intensity of the band for PBP-lipo alone (without β-lactams) was set to 1 as the highest intensity. The intensity of each band for PBP-lipo incubated with β-lactams was then normalized by dividing by the intensity of the band for PBP-lipo alone.

[5] = target: LDT1 (Mycobacterium abscessus, UniProt B1MDC1); assay: Steady-state kinetics with nitrocefin (Ki,app); format: biochemical; conditions: for Ki: nitrocefin at 5 × Km, read-out: Ki,app LDT1 (converted)
Procedure: (§1) Steady-state kinetic studies were conducted using purified LDTs and PBPs (LDT1-5, PBP B, PBP-lipo, and DDC) as previously described ([20]). The assays were performed using a BioTek Synergy2 multimode reader in conjunction with Gen5 analysis software. Increasing concentrations of NCF (Δε482 = 17,400 M^⁻¹ cm^⁻¹) were used, while fixed concentrations of the LDTs and PBPs were monitored for changes in absorbance at 482 nm over a time period of 0 to 10 min. To determine reaction velocities, a 0.25 cm path length was employed. The steady-state kinetic parameters (Vmax, kcat, and Km) were obtained by fitting the data to the Henri-Michaelis-Menten equation using a nonlinear least-squares fit in Origin 8.1 software (OriginLab, Northampton, MA). The reaction rate (v) at a given substrate concentration ([S]) was calculated according to the following equations: […]
(§2) To determine the apparent inhibition constants (Ki,app) for β-lactams and BLIs, the following experimental condition was employed: NCF as a substrate at a concentration of 5 × Km, LDT/ PBP enzymes with fixed concentration, and β-lactams and BLIs with various concentrations. Changes in absorbance at 482 nm were measured over a period of 0–30 min for each concentration of β-lactams and BLIs. Data were linearized using a Dixon plot, plotting the inverse changes in absorbance (1/ΔA) against the concentrations of β-lactams and BLIs. The observed Ki,app was determined directly from the Dixon plot, and these values were corrected for substrate concentration and affinity for the LDT using the following equation:
(§3) Ki,app=observed Ki,app/1+[NCF]/Km NCF

[6] = target: T2, LDT2 (Mycobacterium abscessus, UniProt B1MMQ4); assay: Steady-state kinetics with nitrocefin (Ki,app); format: biochemical; conditions: for Ki: nitrocefin at 5 × Km, read-out: Ki,app LDT2 (converted)
Procedure: as §1, §2, §3

[7] = target: LDT4 (Mycobacterium abscessus, UniProt B1MKW1); assay: Steady-state kinetics with nitrocefin (Ki,app); format: biochemical; conditions: in parentheses in Table 3
Procedure: as §1, §2, §3

[8] = target: T1, PBP-lipo; assay: Steady-state kinetics with nitrocefin (Ki,app); format: biochemical
Procedure: as §1, §2, §3

[9] = target: DDC (Mycobacteroides abscessus, UniProt B1MDJ1); assay: Steady-state kinetics with nitrocefin (Ki,app); format: biochemical; conditions: in parentheses in Table 3;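 note: Parenthesised value is the fCss,avg to Ki,app ratio where above 1 means target likely hit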
Procedure: as §1, with “Increasing concentrations of NCF (Δε482 = 17,400 M^⁻¹ cm^⁻¹) were used, while fixed concentrations of the LDTs and PBPs were monitored for changes in absorbance at 482 nm over a time period of 0 to 10 min.” left out
(§4) Changes in absorbance at 482 nm were measured over a period of 0–30 min for each concentration of β-lactams and BLIs. Data were linearized using a Dixon plot, plotting the inverse changes in absorbance (1/ΔA) against the concentrations of β-lactams and BLIs. The observed Ki,app was determined directly from the Dixon plot, and these values were corrected for substrate concentration and affinity for the LDT using the following equation:
as §3

[10] = target: LDT5 (Mycobacterium abscessus, UniProt B1MM58); assay: Steady-state kinetics with nitrocefin (Ki,app); format: biochemical; conditions: in parentheses in Table 3
Procedure: as §1, with “Increasing concentrations of NCF (Δε482 = 17,400 M^⁻¹ cm^⁻¹) were used, while fixed concentrations of the LDTs and PBPs were monitored for changes in absorbance at 482 nm over a time period of 0 to 10 min.” left out
as §4, §3

[11] = target: PBP B (Mycobacterium abscessus, UniProt B1MP31); assay: Steady-state kinetics with nitrocefin (Ki,app); format: biochemical;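 for Ratio of fCss,avg to Ki,app, PBP B: Parenthesised value is the fCss,avg to Ki,app ratio where above 1 means target likely hit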
Procedure: as §1, with “Increasing concentrations of NCF (Δε482 = 17,400 M^⁻¹ cm^⁻¹) were used, while fixed concentrations of the LDTs and PBPs were monitored for changes in absorbance at 482 nm over a time period of 0 to 10 min.” left out
as §4, §3

[12] = target: BlaMab (Mycobacterium abscessus, UniProt B1MCI3); assay: Ki,app for the β-lactamase; format: biochemical
[13] = target: T2, LDT2; assay: Circular dichroism spectroscopy; format: binding; conditions: 5 µM LDT2, 10 µM β-lactam, 2 h, 25°C
Procedure: The circular dichroism spectra of LDT2 (5 µM in PBS buffer) were recorded on a circular dichroism spectrometer with a 2 mm path length, both in the absence and presence of 10 µM imipenem, ceftaroline, sulopenem, and cefuroxime at 25°C. To ensure the detection of conformational changes, LDT2 and the β-lactams were incubated at room temperature for 2 h. The contribution of each β-lactam alone was subtracted in each case.

[14] = test system: Mab ATCC 19977; assay: Static drug-concentration time-kill (SCTK) assay with CART analysis; format: cell-based, Mycobacterium abscessus; conditions: clinically achievable concentrations, over 10 days; AVI 4 mg/L; DUR 12 mg/L + SUL 7 mg/L
[15] = test system: Mycobacterium abscessus ATCC 19977 strain; assay: Morphological changes by flow cytometry and confocal microscopy; format: cell-based; conditions: clinically relevant unbound concentrations (fCss,ave), 24 h
Procedure: Flow cytometry was employed to evaluate morphological changes in individual bacterial cells following PBP-lipo inactivation after 24 h of β-lactam treatment. The bacterial cells were stained using the BacLight kit L7012 (Thermo Fisher Scientific, Waltham, MA), containing SYTO 9 and propidium iodide (PI). Analysis was performed using a CytoFLEX flow cytometer (Beckman Coulter, CA), with data processed using CytExpert software.
Bacterial morphological changes resulting from PBP-lipo inactivation were investigated using an ImageXpress Micro Confocal Microscope (Molecular Devices, CA). The staining procedures applied to the samples mirrored those used for flow cytometry. Stained bacterial cells were placed in optically clear flat-bottom 96-well plates, and observations were conducted at 60× magnification. Cell length measurements were obtained through automated image analysis using MetaXpress 6 software.

[16] = ATCC19977, Mab ATCC 19977, no BLI added, 30°C, 48 h

LDT1, sequence (B1MDC1 entry or part of it): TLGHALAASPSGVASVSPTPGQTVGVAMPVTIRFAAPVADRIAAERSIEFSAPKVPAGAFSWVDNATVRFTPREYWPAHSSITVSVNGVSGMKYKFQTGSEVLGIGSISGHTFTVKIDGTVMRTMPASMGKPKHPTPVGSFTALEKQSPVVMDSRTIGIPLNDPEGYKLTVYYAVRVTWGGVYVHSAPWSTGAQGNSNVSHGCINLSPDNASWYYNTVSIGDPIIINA
T2 sequence (B1MMQ4 entry or part of it): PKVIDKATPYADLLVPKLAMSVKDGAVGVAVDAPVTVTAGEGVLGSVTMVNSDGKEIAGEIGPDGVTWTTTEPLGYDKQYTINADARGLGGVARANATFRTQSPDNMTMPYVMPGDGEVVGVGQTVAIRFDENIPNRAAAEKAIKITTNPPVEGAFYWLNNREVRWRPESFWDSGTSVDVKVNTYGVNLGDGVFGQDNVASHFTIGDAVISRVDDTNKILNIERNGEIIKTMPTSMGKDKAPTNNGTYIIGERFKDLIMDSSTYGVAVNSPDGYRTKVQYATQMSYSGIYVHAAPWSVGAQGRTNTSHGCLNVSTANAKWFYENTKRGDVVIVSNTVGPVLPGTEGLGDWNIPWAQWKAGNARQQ
T1 sequence (B1MDC3 entry or part of it): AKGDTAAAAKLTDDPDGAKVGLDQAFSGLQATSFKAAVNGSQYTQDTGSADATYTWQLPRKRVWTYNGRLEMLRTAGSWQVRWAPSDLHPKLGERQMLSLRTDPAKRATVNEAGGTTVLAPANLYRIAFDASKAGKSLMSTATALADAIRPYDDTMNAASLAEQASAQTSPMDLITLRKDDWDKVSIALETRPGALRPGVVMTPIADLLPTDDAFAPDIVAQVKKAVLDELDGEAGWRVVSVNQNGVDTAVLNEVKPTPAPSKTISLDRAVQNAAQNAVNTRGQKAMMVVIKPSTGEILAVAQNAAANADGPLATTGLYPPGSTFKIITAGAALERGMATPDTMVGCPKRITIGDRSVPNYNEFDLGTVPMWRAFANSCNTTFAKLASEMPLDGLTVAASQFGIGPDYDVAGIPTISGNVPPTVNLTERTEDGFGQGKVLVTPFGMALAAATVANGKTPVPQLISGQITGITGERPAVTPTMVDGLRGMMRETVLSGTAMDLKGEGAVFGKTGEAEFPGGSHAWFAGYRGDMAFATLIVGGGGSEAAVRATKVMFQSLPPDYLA
PBP B, sequence (B1MP31 entry or part of it): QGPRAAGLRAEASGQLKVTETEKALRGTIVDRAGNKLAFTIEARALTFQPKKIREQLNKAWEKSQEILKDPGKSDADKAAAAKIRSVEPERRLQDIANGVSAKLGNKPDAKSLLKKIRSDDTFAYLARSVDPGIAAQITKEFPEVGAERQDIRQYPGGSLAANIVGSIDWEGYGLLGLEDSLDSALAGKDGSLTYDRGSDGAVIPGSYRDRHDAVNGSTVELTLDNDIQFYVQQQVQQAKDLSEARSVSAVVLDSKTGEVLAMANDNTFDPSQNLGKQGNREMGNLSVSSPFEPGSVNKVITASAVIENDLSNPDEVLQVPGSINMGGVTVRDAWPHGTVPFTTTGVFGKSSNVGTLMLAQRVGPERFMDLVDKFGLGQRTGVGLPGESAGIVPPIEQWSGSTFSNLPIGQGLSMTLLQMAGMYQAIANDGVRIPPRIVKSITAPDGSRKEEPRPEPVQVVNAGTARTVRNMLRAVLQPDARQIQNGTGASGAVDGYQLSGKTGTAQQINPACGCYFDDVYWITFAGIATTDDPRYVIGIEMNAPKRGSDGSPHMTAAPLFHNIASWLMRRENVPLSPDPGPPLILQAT
LDT5, sequence (B1MM58 entry or part of it): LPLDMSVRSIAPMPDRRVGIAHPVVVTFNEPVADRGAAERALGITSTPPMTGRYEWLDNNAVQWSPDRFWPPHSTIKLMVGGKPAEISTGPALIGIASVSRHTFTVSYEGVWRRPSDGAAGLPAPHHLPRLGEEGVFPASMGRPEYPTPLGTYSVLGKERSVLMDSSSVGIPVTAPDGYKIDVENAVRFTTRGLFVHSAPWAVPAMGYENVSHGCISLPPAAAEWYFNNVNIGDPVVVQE
LDT3, sequence (B1MHQ4 entry or part of it): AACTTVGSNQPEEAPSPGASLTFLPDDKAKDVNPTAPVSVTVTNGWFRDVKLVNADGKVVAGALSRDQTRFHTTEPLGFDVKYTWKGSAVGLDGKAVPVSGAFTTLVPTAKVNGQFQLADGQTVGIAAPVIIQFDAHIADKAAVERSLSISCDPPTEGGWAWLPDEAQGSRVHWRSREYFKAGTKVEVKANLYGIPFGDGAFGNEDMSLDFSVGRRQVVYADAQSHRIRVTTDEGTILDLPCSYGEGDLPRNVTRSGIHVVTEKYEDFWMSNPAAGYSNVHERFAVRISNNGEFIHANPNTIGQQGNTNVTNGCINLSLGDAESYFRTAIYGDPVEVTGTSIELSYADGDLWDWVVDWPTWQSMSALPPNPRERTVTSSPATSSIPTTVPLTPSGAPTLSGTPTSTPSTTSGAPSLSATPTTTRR
BlaMab, sequence (B1MCI3 entry or part of it): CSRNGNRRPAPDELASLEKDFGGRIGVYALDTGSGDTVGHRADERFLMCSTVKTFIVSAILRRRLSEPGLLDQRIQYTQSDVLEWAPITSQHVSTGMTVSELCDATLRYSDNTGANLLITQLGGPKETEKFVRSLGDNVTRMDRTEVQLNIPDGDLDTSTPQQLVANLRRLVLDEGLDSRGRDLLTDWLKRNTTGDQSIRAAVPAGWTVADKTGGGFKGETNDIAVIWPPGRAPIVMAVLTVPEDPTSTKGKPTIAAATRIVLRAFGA
DDC, sequence (B1MDJ1 entry or part of it): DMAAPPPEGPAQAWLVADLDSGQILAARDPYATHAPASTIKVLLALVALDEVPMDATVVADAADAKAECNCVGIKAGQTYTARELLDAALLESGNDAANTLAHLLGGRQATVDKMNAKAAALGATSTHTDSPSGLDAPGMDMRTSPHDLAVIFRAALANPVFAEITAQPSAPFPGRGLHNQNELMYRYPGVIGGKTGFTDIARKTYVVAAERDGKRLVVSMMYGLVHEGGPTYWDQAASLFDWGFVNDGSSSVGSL
LDT4, sequence (B1MKW1 entry or part of it): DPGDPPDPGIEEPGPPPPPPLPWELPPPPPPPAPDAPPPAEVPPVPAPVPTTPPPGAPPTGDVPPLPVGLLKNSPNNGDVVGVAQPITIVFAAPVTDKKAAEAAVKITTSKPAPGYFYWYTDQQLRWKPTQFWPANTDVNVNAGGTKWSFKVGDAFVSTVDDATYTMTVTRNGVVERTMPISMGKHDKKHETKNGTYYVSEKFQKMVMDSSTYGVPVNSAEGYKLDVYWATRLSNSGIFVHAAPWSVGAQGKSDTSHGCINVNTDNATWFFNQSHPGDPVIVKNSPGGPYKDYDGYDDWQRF

For `NCC[C@H](O)C(=O)N[C@@H]1C[C@H](N)[C@@H](O[C@H]2O[C@H](CN)[C@@H](O)[C@H](O)[C@H]2O)[C@H](O)[C@H]1O[C@H]1O[C@H](CO)[C@@H](O)[C@H](N)[C@H]1O` [Amikacin, amikacin], the MIC [1, 16] was 16 µg/mL (≈ 27.3 µM) and the “Average unbound concentration at steady-state” value ([2]; amikacin doses between 20 and 30 mg/kg) was 12 mg/L.

`CO[C@@]1(NC(=O)Cc2cccs2)C(=O)N2C(C(=O)O)=C(COC(N)=O)CS[C@@H]21` [Cefoxitin, cefoxitin] showed an MIC [1, 16] of 16 µg/mL (≈ 37.4 µM).

In the case of `CCO/N=C(\C(=O)N[C@@H]1C(=O)N2C(C(=O)[O-])=C(Sc3nc(-c4cc[n+](C)cc4)cs3)CS[C@H]12)c1nsc(N)n1` [Ceftaroline, ceftaroline], the MIC ([1]; ATCC19977, 48 h) is reported as 16 µg/mL (≈ 26.5 µM), the “MIC, + AVI (4 mg/L)” value ([1]; fixed avibactam 4 mg/L) is reported as 1 to 2 µg/mL and the “MIC, + DUR + SUL (1 mg/L)” value ([1]; fixed durlobactam 1 mg/L + sulbactam 1 mg/L) is reported as 2 µg/mL. The “Observed MW (+ change in mw), LDT3 (44,795)” value [3] was 44,794 (−) Da, the “Binding to PBP-lipo (Bocillin-FL competition)” value [4] was “demonstrated binding to PBP-lipo” and the “Ratio of fCss,avg to Ki,app, LDT1” value ([5]; in parentheses in Table 3) was 14. For the same molecule, the Ki [5] was 0.827 µM, the “Ratio of fCss,avg to Ki,app, LDT2” value ([6]; in parentheses in Table 3) was 10 and the Ki [6] was 1.16 µM. For the same molecule, the “Ratio of fCss,avg to Ki,app, LDT4” value [7] was 0.1, the Ki [8] was 23.2 µM and the “Ratio of fCss,avg to Ki,app, PBP-lipo” value ([8]; in parentheses in Table 3) was 0.5. The “Ratio of fCss,avg to Ki,app, DDC” value [9] was 0.3, the “Ratio of fCss,avg to Ki,app, LDT5” value [10] was 0.1 and the Ki [11] was 2.32 µM. The “Ratio of fCss,avg to Ki,app, PBP B” value ([11]; in parentheses in Table 3) was 5, the Ki [12] was 681 µM and the “fCss,avg” value ([2]; median unbound average steady-state plasma concentration, continuous infusion, daily dose DUR 4,000, AVI 1,500, IPM 4,000, CFT 1,800, AMX 1,500, SULO 1,000, CXM 1,500, SUL 4,000, TBP 1,800 mg) was 7 mg/L. The “Conformational change of LDT2 (CD spectrum)” value [13] was “altered its secondary structure”.

In the case of `CC[C@H]1OC(=O)[C@H](C)[C@@H](O[C@H]2C[C@@](C)(OC)[C@@H](O)[C@H](C)O2)[C@H](C)[C@@H](O[C@@H]2O[C@H](C)C[C@H](N(C)C)[C@H]2O)[C@](C)(OC)C[C@@H](C)C(=O)[C@H](C)[C@@H](O)[C@]1(C)O` [Clarithromycin, clarithromycin], the MIC [1, 16] is reported as 8 µg/mL (≈ 10.7 µM) and the “Steady-state average unbound concentration” value ([2]; daily dose of 1000 mg) is reported as 0.3 mg/L.

In the case of `CC1(C)[C@H](C(=O)O)N2C(=O)C[C@H]2S1(=O)=O` [Sulbactam, sulbactam], the “Bacterial killing (log10 reduction) in time-kill” value [14] is reported as “no bacterial killing”, the Ki [5] is reported as 643 µM and the Ki [6] is reported as 0.0857 µM. The Ki [11] was 55.7 µM and the “Morphological change of Mab cells” value [15] was “did not induce noticeable morphological changes”.

— publication PMC11823594, “Durlobactam in combination with β-lactams to combat Mycobacterium abscessus” (Antimicrobial Agents and Chemotherapy, 2024)
